Source: patent US11660313B2, “Compositions and methods for application over skin” (Shiseido Company, Limited, priority 2015, dated 2023)
In brackets after ≈: the same amount, converted by molar mass.

Test: Solubility of triamcinolone acetonide in receptor fluid
Assay type: physicochemical
Details: not told, aqueous with cosolvent or surfactant or cyclodextrin; PBS at pH 7.4 with 2 wt % hydroxypropyl-beta-cyclodextrin
Description: Receptor fluid preparation: Based on the results of solubility studies, a receptor fluid of phosphate buffered saline (PBS) at pH 7.4 with 2 wt % hydroxypropyl-beta-cyclodextrin (HPBCD) was chosen. […] The preparation and degassing of the receptor fluid was prepared at an appropriate pH and degassing was carried out by filtering the receptor fluid through a ZapCap CR 0.2 μm membrane while pulling vacuum.

solubility: ~282 µg/mL (≈ 649 µM)
Compound: CC1(C)O[C@@H]2C[C@H]3[C@@H]4CCC5=CC(=O)C=C[C@]5(C)[C@@]4(F)[C@@H](O)C[C@]3(C)[C@]2(C(=O)CO)O1 [triamcinolone acetonide]
